# Measurements published in US20010011084A1, “USE OF ESTROGEN TO MODIFY THE AMOUNT OF SEROTONIN TRANSPORTER OR ITS MRNA” (priority 1996, published 2001).
# Columns and labels:
# luteinizing hormone (LH) = experiment: Plasma r-LH in trunk blood by radioimmunoassay; format: in vivo, rat; conditions: presumptive proestrus, OVX rats, 10 μg s.c., mean±sem, n=7
# uterine horns = experiment: Examination of the uterine horns; format: in vivo, rat; conditions: OVX rats, 10 μg s.c., next day
# [1] = 10 μg EB s.c., for up to 30 h in ovariectomized rats; cited from earlier work
structure (smiles),measurement,setting,value
"C[C@]12CC[C@@H]3c4ccc(OC(=O)c5ccccc5)cc4CC[C@H]3[C@@H]1CC[C@@H]2O [EB, estradiol benzoate]",Plasma r-LH levels,luteinizing hormone (LH),7.5 ± 3.1 ng/mL
same,uterine horns,uterine horns,markedly distended with fluid
same,blood levels of E2,[1],100-120 pg E2/ml
